Measurements from PubChem BioAssay (NCI).
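Dose response: 5 concentrations. Exposure: 48 h. Format: 96-well plates. Endpoint: linear interpolation; highest concentration if not reached. TGI: total growth inhibition.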

Tests used:
Assay in all cases: growth of human tumour cells (NCI), 48 h
[1] = system: SF-268 CNS
[2] = system: ACHN renal
[3] = system: SR leukemia
[4] = system: RXF 393 renal
[5] = system: SK-MEL-2 melanoma
[6] = system: COLO 205 colon
[7] = system: RPMI-8226 leukemia
[8] = system: T-47D breast
[9] = system: CCRF-CEM leukemia
[10] = system: HOP-62 NSCLC
[11] = system: MCF7 breast
[12] = system: HL-60(TB) leukemia
[13] = system: BT-549 breast
[14] = system: SNB-19 CNS
[15] = system: UO-31 renal
[16] = system: IGROV1 ovarian
[17] = system: SNB-75 CNS
[18] = system: HOP-92 NSCLC
[19] = system: HT29 colon
[20] = system: U251 CNS
[21] = system: OVCAR-3 ovarian
[22] = system: MDA-MB-435
[23] = system: LOX IMVI melanoma
[24] = system: MDA-MB-231 breast
[25] = system: OVCAR-8 ovarian
[26] = system: UACC-257 melanoma
[27] = system: EKVX NSCLC
[28] = system: SK-MEL-28 melanoma
[29] = system: SK-OV-3 ovarian
[30] = system: OVCAR-4 ovarian
[31] = system: HCC-2998 colon
[32] = system: DU-145 prostate
[33] = system: MOLT-4 leukemia
[34] = system: K-562 leukemia
[35] = system: HCT-116 colon
[36] = system: TK-10 renal
[37] = system: HCT-15 colon
[38] = system: KM12 colon
[39] = system: UACC-62 melanoma
[40] = system: MALME-3M melanoma
[41] = system: HS 578T breast
[42] = system: 786-0 renal
[43] = system: NCI/ADR-RES ovarian
[44] = system: A549 NSCLC
[45] = system: CAKI-1 renal
[46] = system: A498 renal
[47] = system: SK-MEL-5 melanoma
[48] = system: MDA-N
[49] = system: PC-3 prostate
[50] = system: OVCAR-5 ovarian
[51] = system: NCI-H226 lung
[52] = system: NCI-H23 lung
[53] = system: NCI-H522 lung
[54] = system: SN12C renal
[55] = system: NCI-H460 lung
[56] = system: SW-620 colon
[57] = system: SF-295 CNS
[58] = system: M14 melanoma

`CCS1=C2C(=O)CC(C)(C)CC2=Nc2ccccc21` (centres undefined) gave a TGI [1] of over 100 µM, a TGI [2] of over 100 µM and a TGI [3] of over 100 µM. The TGI [4] was over 100 µM, the TGI [5] was over 100 µM and the TGI [6] was over 100 µM. It also gave a TGI [7] of over 100 µM, a TGI [8] of over 100 µM and a TGI [9] of over 100 µM. For the same molecule, the TGI [10] was over 100 µM, the TGI [11] was over 100 µM and the TGI [12] was over 100 µM. The TGI [13] was over 100 µM, the TGI [14] was over 100 µM and the TGI [15] was over 100 µM. For the same molecule, the TGI [16] was over 100 µM, the TGI [17] was over 100 µM and the TGI [18] was over 100 µM. The TGI [19] was over 100 µM, the TGI [20] was over 100 µM and the TGI [21] was over 100 µM. It also gave a TGI [22] of over 100 µM, a TGI [23] of over 100 µM and a TGI [24] of over 100 µM. The TGI [25] was over 100 µM, the TGI [26] was over 100 µM and the TGI [27] was over 100 µM. It also gave a TGI [28] of over 100 µM, a TGI [29] of over 100 µM and a TGI [30] of over 100 µM. For the same molecule, the TGI [31] was over 100 µM, the TGI [32] was over 100 µM and the TGI [33] was over 100 µM. The TGI [34] was over 100 µM, the TGI [35] was over 100 µM and the TGI [36] was over 100 µM. The TGI [37] was over 100 µM, the TGI [38] was over 100 µM and the TGI [39] was over 100 µM. For the same molecule, the TGI [40] was over 100 µM, the TGI [41] was over 100 µM and the TGI [42] was over 100 µM. For the same molecule, the TGI [43] was over 100 µM, the TGI [44] was over 100 µM and the TGI [45] was over 100 µM. The TGI [46] was over 100 µM, the TGI [47] was over 100 µM and the TGI [48] was over 100 µM. The TGI [49] was over 100 µM, the TGI [50] was over 100 µM and the TGI [51] was over 100 µM. It also gave a TGI [52] of over 100 µM, a TGI [53] of over 100 µM and a TGI [54] of over 100 µM. It also gave a TGI [55] of over 100 µM, a TGI [56] of over 100 µM and a TGI [57] of over 100 µM. The TGI [58] was over 100 µM.
In the case of `COc1ccc(C2(CC(C)C)CCNC2)cc1OC` (centres undefined), the TGI [1] is reported as over 100 µM, the TGI [2] is reported as over 100 µM and the TGI [3] is reported as over 100 µM. For the same molecule, the TGI [4] was over 100 µM, the TGI [5] was over 100 µM and the TGI [6] was over 100 µM. It also gave a TGI [7] of over 100 µM, a TGI [8] of over 100 µM and a TGI [9] of over 100 µM. For the same molecule, the TGI [10] was over 100 µM, the TGI [11] was over 100 µM and the TGI [12] was over 100 µM. For the same molecule, the TGI [13] was over 100 µM, the TGI [14] was over 100 µM and the TGI [15] was over 100 µM. It also gave a TGI [16] of over 100 µM, a TGI [17] of 86.3 µM and a TGI [18] of over 100 µM. The TGI [19] was over 100 µM, the TGI [20] was over 100 µM and the TGI [22] was over 100 µM. For the same molecule, the TGI [23] was over 100 µM, the TGI [24] was over 100 µM and the TGI [25] was over 100 µM. For the same molecule, the TGI [26] was over 100 µM, the TGI [27] was over 100 µM and the TGI [28] was over 100 µM. The TGI [29] was over 100 µM, the TGI [30] was over 100 µM and the TGI [31] was 38.5 µM. The TGI [32] was over 100 µM, the TGI [34] was over 100 µM and the TGI [35] was over 100 µM. For the same molecule, the TGI [36] was over 100 µM, the TGI [37] was over 100 µM and the TGI [38] was over 100 µM. It also gave a TGI [39] of over 100 µM, a TGI [40] of over 100 µM and a TGI [41] of over 100 µM. It also gave a TGI [42] of over 100 µM, a TGI [43] of over 100 µM and a TGI [44] of over 100 µM. The TGI [45] was over 100 µM, the TGI [46] was over 100 µM and the TGI [47] was over 100 µM. It also gave a TGI [48] of over 100 µM, a TGI [49] of over 100 µM and a TGI [50] of over 100 µM. It also gave a TGI [51] of over 100 µM, a TGI [52] of over 100 µM and a TGI [53] of over 100 µM. The TGI [54] was over 100 µM, the TGI [55] was over 100 µM and the TGI [56] was over 100 µM. It also gave a TGI [57] of over 100 µM and a TGI [58] of over 100 µM.
